Mortality and LD50 data for 17 molecules are collected here from US4599362A, “2-aryl-ethyl ether derivatives and insecticidal and acaricidal agents containing said derivatives” (priority 1980, dated 1986).

One data set relates to two-spotted spider mite. Kind of data set: Test 6: Effect on Two-Spotted Spider mite adults. In kind it is in vivo. As to conditions: Tetranychus urticae. How it is done: (§1) To a mixture of 20 parts of the compound of the present invention and 20 parts of Sorpol SM-200 (registered trademark for the product supplied by Toho Chemical Industrial Co., Ltd.) was added 60 parts of xylol, and the mixture was sufficiently blended. The obtained emulsifiable concentrate was diluted at a predetermined concentration with distilled water, and the obtained dilution was used.
A kidney bean leaf disc perforated with a cork borer (15 mm in diameter) was placed on water-impreganated absorbent cotton (2 cm×2 cm), and 10 adults of two-spotted spider mite were set free. A chemical dilution having a concentration of 500 ppm was applied with an applicator in an amount of 3 ml.
The leaf disc-placed absorbent cotton was placed in a thermostat chamber maintained at 25° C. After 24 hours, the number of killed adults was counted and the mortality was calculated. The test was made on three leaf discs and the average value was calculated.

A short description of data set [1]: Test 9: Toxicity Test (acute oral, mice). The conditions noted are these: mouse, in vivo, po. How it is done:
In the fish toxicity test, the test compound was dissolved in acetone to form a 1% solution, and a predetermined amount of the solution was used. In the mouse toxicity test, the test compound of the present invention was dissolved or suspended in corn oil, and a predetermined amount of the solution or suspension was used.
A predetermined amount of a solution or suspension of a test compound in corn oil was orally administered to male mice having a body weight of 19 to 23 g (0.2 ml per 10 g of the body weight). After 7 days, the number of killed mice was counted and the influences on the mice were examined.

Data set [2] concerns sensitive green rice leafhopper (collected at Chigasaki). Kind of data set: Test 3: Effect on Sensitive Green Rice Leafhopper. The conditions noted are these: Nephotettix cincticeps, female adults, 24 hours. It counts as in vivo. How it is done: as §1
(§2) Seedlings (having 2 to 3 leaves) of paddy rice were hydroponically cultured in a pot having a diameter of 5 cm. A chemical dilution having a concentration of 100 or 20 ppm, prepared in the same manner as described in Test 1, was applied with a sprayer at a rate of 3 ml per pot. The treated seedlings were air-dried and covered with a metal net cylinder, and female adults of resistant green rice leafhopper (collected at Nakagawara) and sensitive green rice leafhopper (collected at Chigasaki) were set, respectively, free in the pot at a density of 10 adults per pot. After of 24 hours, the numbers of killed and living adults were counted and the mortality was calculated. The test was made on three pots and the average value was calculated.

The test system of data set [3] is resistant green rice leafhopper (collected at Nakagawara). As to the kind of experiment: Test 3: Effect on Resistant Green Rice Leafhopper. In kind it is in vivo, Nephotettix cincticeps Uhler. The conditions noted are these: Nephotettix cincticeps, 24 h, read-out: Mortality (%) Green Rice Leafhopper Collected at Nakagawara. How it is done: as §1, §2
The next data set relates to German cockroach. As to the kind of experiment: Test 7: Effect on German Cockroach. The conditions noted are these: Blattella germanica, male adults, 24 hours, agonized and killed; for mortality at 10 mg/m2: 10 mg/m^2; for mortality at 50 mg/m2: 50 mg/m^2. In kind it is in vivo. How it is done: The bottom face of a high Petri dish having a diameter of 9 cm and a height of 9 cm was treated with 50 or 10 mg/m^2 of a test compound and the dish was air-dried. In order to prevent the adults from escaping from the dish, the inner wall of the dish was treated with butter. Then, 10 male adults of German cockroach were set free in each dish, and the dish was placed in a thermostat chamber maintained at 25° C. After 24 hours, the number of agonized and killed adults was counted. The test was made on two dishes and the average value was calculated.

Data set [4] concerns third-instar larvae of diamond back moth. Kind of data set: Test 4: Effect on Diamond Back Moth. In kind it is in vivo. As to conditions: Plutella xylostella, 24 hours. How it is done: as §1
Cabbage leaves were spread in a plastic cup, and 10 third-instar larvae of diamond back moth were set free in the cup.
A chemical dilution having a concentration of 100 or 20 ppm, prepared in the same manner as described in Test 1, was applied from an applicator at a rate of 3 ml per cup.
After scattering of the chemical dilution, the cup was covered, and after 24 hours, the numbers of killed and living larvae were counted and the mortality was calculated. The test was made on three cups and the average value was calculated.

Data set [5] has as its system Second-instar and fifth-instar larvae of tobacco cutworm. As to the kind of experiment: Test 2: Tobacco Cutworm Larva Dipping Test. In kind it is in vivo. How it is done: as §1
A dilution having a chemical concentration of 100 or 20 ppm was prepared in the same manner as described in Test 1.
Second-instar and fifth-instar larvae of tobacco cutworm were dipped in the dilution for 5 seconds, and the excessive dilution was removed by a filter paper. Then, the larvae were set free in a plastic cup and an artificial diet was supplied thereto. The cup was allowed to stand still in a thermostat chamber maintained at 25° C. After 24 hours, the numbers of the killed and living larvae were counted and the mortality was calculated. The test was made on three cups and the result was expressed by an average value.

Where [6] appears, read: 500 ppm, adults, 24 hours, read-out: Mortality (%).
Setting [7] is: 20 ppm, second-instar larvae, 24 hours, read-out: Mortality (%) Second-Instar Larvae.
Where [8] appears, read: 100 ppm, second-instar larvae, 24 hours, read-out: Mortality (%) Second-Instar Larvae.
Setting [9] is: topical, 24 h, read-out: Mortality (%) Fifth-Instar Larvae.

The structures appear in SMILES notation. Like-named read-outs stand apart in the source and are kept apart here.

With `CCOP(=S)(OCC)Oc1ccc(=O)n(-c2ccccc2)n1` [(d), 0,0-diethyl-0-(3-oxo-2-phenyl-2H-pyridazin-6-yl)-phosphorothioate, reference compound], the mortality at 500 ppm in the data set on two-spotted spider mite (24 h) is 80%.
For the molecule `CC(=O)c1ccc(C(C)(C)COCc2ccc(F)c(Oc3ccccc3)c2)cc1` [Compound 40], in data set [1], the LD50 at 168 h was > 500 mg/kg.
Consider `CC(C)(COCc1ccc(F)c(Oc2ccccc2)c1)c1ccc([N+](=O)[O-])cc1` [Compound 30, 3-Phenoxy-4-fluorobenzyl 2-(4-nitrophenyl)-2-methylpropyl ether], for which, in data set [2], the mortality at 20 ppm came to 80% and the mortality at 100 ppm amounted to 100%. Further, in data set [3], the mortality at 20 ppm worked out at 90% and the mortality at 100 ppm is 100%.
Take `CC(C)(COCc1ccc(F)c(Oc2ccccc2)c1)c1ccc(I)cc1` [Compound 66, 3-Phenoxy-4-fluorobenzyl 2-(4-iodophenyl)-2-methylpropyl ether]: the mortality at 20 ppm in data set [2] was found to be 100%; in data set [4], 90%; in data set [5] (setting [7]), 90%; in data set [5] (setting [9]) it was 75%; in data set [3], 100%. Moreover, the mortality at 100 ppm in data set [2], in data set [4], in data set [5] (setting [8]), in data set [5] (setting [9]) and in data set [3] was 100% in each case. Besides, the mortality at 10 mg/m2 in the data set with German cockroach came to 100%. The same molecule gave a mortality at 50 mg/m2 in the data set with German cockroach of 100%. In addition, in the data set with two-spotted spider mite (setting [6]), the mortality at 500 ppm worked out at 100%.
In data set [2], `CCC(C)Oc1ccc(C(C)(C)COCc2ccc(F)c(Oc3ccccc3)c2)cc1` (centres unmarked) [Compound 63] yielded a mortality at 20 ppm of 100% and a mortality at 100 ppm of 100%. In the data set with German cockroach, this molecule yielded a mortality at 10 mg/m2 of 100% and a mortality at 50 mg/m2 of 100%. Also, the mortality at 500 ppm with two-spotted spider mite (setting [6]) is 100%. In data set [3], the mortality at 20 ppm turned out to be 100% and the mortality at 100 ppm turned out to be 100%.
In data set [2], `CC(C)c1ccc(C(C)(C)COCc2ccc(F)c(Oc3ccccc3)c2)cc1` [Compound 58] showed a mortality at 20 ppm of 100% and a mortality at 100 ppm of 100%. Also, in the data set on German cockroach, the mortality at 10 mg/m2 was 100% and the mortality at 50 mg/m2 was found to be 100%. Besides, the mortality at 500 ppm with two-spotted spider mite (setting [6]) was 100%. Besides, in data set [3], the mortality at 20 ppm turned out to be 100% and the mortality at 100 ppm came out at 100%.
Regarding `CCOc1cccc(C(C)(C)COCc2ccc(F)c(Oc3ccccc3)c2)c1` [Compound 57], the mortality at 20 ppm in data set [2], in data set [4] and in data set [3] was 100% each time. The mortality at 100 ppm in data set [2], in data set [4] and in data set [3] was 100% in each case.
On to `CC(C)(COCc1ccc(F)c(Oc2ccccc2F)c1)c1ccc(Cl)cc1` [Compound 11, 3-(2-Fluorophenoxy)-4-fluorobenzyl 2-(4-chlorophenyl)-2-methylpropyl ether], for which, in data set [2], the mortality at 20 ppm was 100% and the mortality at 100 ppm was 100%. Besides, in the data set with German cockroach, the mortality at 10 mg/m2 stood at 100% and the mortality at 50 mg/m2 was 100%. In the data set on two-spotted spider mite (setting [6]), the mortality at 500 ppm came out at 100%. In data set [4], the mortality at 20 ppm was 100% and the mortality at 100 ppm turned out to be 100%. Further, in data set [3], the mortality at 20 ppm was 100% and the mortality at 100 ppm came out at 100%.
In data set [2], `CCOc1ccc(Oc2cc(COCC(C)(C)c3ccc(OCC)cc3)ccc2F)cc1` [Compound 53, 3-(4-Ethoxyphenoxy)-4-fluorobenzyl 2-(4-ethoxyphenyl)-2-methylpropyl ether] had a mortality at 20 ppm of 90% and a mortality at 100 ppm of 100%. In the data set on German cockroach, this molecule came in with a mortality at 10 mg/m2 of 100% and a mortality at 50 mg/m2 of 100%. In addition, in data set [3], the mortality at 20 ppm turned out to be 100% and the mortality at 100 ppm was 100%.
In the data set with German cockroach, `CC(C)(COCc1ccc(F)c(Oc2ccccc2)c1)c1ccc(F)c(Cl)c1` [Compound 50, 3-Phenoxy-4-fluorobenzyl 2-(3-chloro-4-fluorophenyl)-2-methylpropyl ether] registered a mortality at 10 mg/m2 of 100% and a mortality at 50 mg/m2 of 100%. Further, in data set [5] (setting [7]), the mortality at 20 ppm was 90%. In addition, the mortality at 100 ppm in data set [5] (setting [8]) amounted to 100%. Further, in data set [5] (setting [9]), the mortality at 20 ppm turned out to be 80% and the mortality at 100 ppm was found to be 100%.
For the molecule `CC(C)(COCc1ccc(F)c(Oc2ccccc2)c1)c1ccc2c(c1)OCO2` [Compound 33, 3-Phenoxy-4-fluorobenzyl 2-(3,4-methylenedioxyphenyl)-2-methylpropyl ether], the mortality at 20 ppm in data set [2] and in data set [3] was 100% each time. Moreover, the mortality at 100 ppm in data set [2] and in data set [3] was 100% in each case.
Turning to `Cc1cccc(Oc2cc(COCC(C)(C)c3ccc(Cl)cc3)ccc2F)c1` [Compound 22, 3-(3-Methylphenoxy)-4-fluorobenzyl 2-(4-chlorophenyl)-2-methylpropyl ether], the mortality at 20 ppm in data set [2] came out at 60%; in data set [3] it was 75%. Moreover, the mortality at 100 ppm in data set [2] and in data set [3] was 100% in each case.
As for `CCCOc1ccc(C(C)(C)COCc2ccc(F)c(Oc3ccccc3)c2)cc1` [Compound 65], in data set [2], the mortality at 20 ppm was found to be 100% and the mortality at 100 ppm is 100%. In the data set on German cockroach, the mortality at 10 mg/m2 was 100% and the mortality at 50 mg/m2 came to 100%. In data set [4], this molecule showed a mortality at 20 ppm of 100% and a mortality at 100 ppm of 100%. In data set [3], the mortality at 20 ppm came out at 100% and the mortality at 100 ppm turned out to be 100%.
For `CCOc1ccc(C(C)(CC)COCc2ccc(F)c(Oc3ccccc3)c2)cc1` (centres unmarked) [Compound 55, 3-Phenoxy-4-fluorobenzyl 2-(4-ethoxyphenyl)-2-methylbutyl ether], in the data set on German cockroach, the mortality at 10 mg/m2 came to 100% and the mortality at 50 mg/m2 amounted to 100%. Besides, in data set [4], the mortality at 20 ppm came out at 100% and the mortality at 100 ppm is 100%.
Take `CCOc1ccc(C(COCc2ccc(F)c(Oc3ccccc3)c2)C(C)C)cc1` (centres unmarked) [Compound 62, 3-Phenoxy-4-fluorobenzyl 2-(4-ethoxyphenyl)-3-methylbutyl ether]: the mortality at 20 ppm in data set [2], in data set [4] and in data set [3] was 100% each time. In addition, the mortality at 100 ppm in data set [2], in data set [4] and in data set [3] was 100% in each case.
In the data set with German cockroach, `CCOc1ccc(C(CC)COCc2ccc(F)c(Oc3ccccc3)c2)cc1` (centres unmarked) [Compound 47, 3-Phenoxy-4-fluorobenzyl 2-(4-ethoxyphenyl)-butylether] came in with a mortality at 10 mg/m2 of 100% and a mortality at 50 mg/m2 of 100%. Further, the mortality at 500 ppm with two-spotted spider mite (setting [6]) amounted to 85%. Moreover, in data set [4], the mortality at 20 ppm amounted to 100% and the mortality at 100 ppm amounted to 100%.
In data set [2], `CC(C)(COCc1ccc(F)c(Oc2ccccc2)c1)c1cccc(C(F)(F)F)c1` [Compound 17, 3-Phenoxy-4-fluorobenzyl 2-(3-trifluoromethylphenyl)-2-methylpropyl ether] displayed a mortality at 20 ppm of 90% and a mortality at 100 ppm of 100%. In addition, in data set [3], the mortality at 20 ppm is 100% and the mortality at 100 ppm was 100%.

The mortality is the percentage killed. Broadly, the LD50 is the dose at which mortality reaches 50%.
